Results: article PMC9115112, “A2B adenosine receptor antagonists rescue lymphocyte activity in adenosine-producing patient-derived cancer models” (Journal for Immunotherapy of Cancer, 2022)

Assays:
[1] = system: healthy donor T cells (PBMCs) and NK cells; experiment: CFSE proliferation assay with exogenous adenosine; type: cell-based, human; conditions: exogenous adenosine 0.1 mM, antagonist 12 µM, 3 days (T) and 6 days (NK)
Method: Freshly isolated PBMCs and NK cells were stained with 5 µM FITC-conjugated carboxyfluorescein succinimidyl ester (CFSE, BioLegend) in phosphate-buffered saline (PBS) (Life Technologies) at room temperature for 5 min. CSFE stained cells were washed with flow cytometer buffer three times. CSFE-labeled healthy PBMCs and NK cells were cultured in 96-well plates with X-VIVO20% and 1% PS for 3 and 6 days, respectively. Healthy PBMCs were incubated with Human T-activator CD3/CD28 beads at 1:4 ratio (Thermo Fisher Scientific) and IL-2 (Novartis) at 100 IU/mL. Healthy donor NK cells were incubated with 1000 IU/mL IL-2 only. 2×10^5 PBMCs and 5×10^4 NK cells were counted for treatment with ADO (Sigma-Aldrich) and 12 μM of A2BAR antagonist at the same day.
Figure 3 Rescue of lymphocyte proliferation by of A2BAR antagonism. Relative proliferation of: (A) CD45RA- CD4 T cells, (B) CD45RA+ CD4 T cells, (C) CD45RA- CD8 T cells, (D) CD45RA+ CD8 T cells, and (E) NK cells, after incubation with exogenous adenosine 0.1 mM and A2BAR antagonist 12 µM for 3 (A–D) and 6 (E) days. (n=10 healthy donors) CD45RA expression differentiates naïve and effector T cells from central and effector memory T cells. Box plots with minimum, first quartile, median, third quartile, and maximum are presented. Unpaired and non-parametric statistical analysis—Mann-Whitney test was performed against untreated control with *p<0.05, **p<0.01, ***p<0.001, and ****p<0.0001. (F–J) Representative CFSE histogram on the corresponding lymphocyte subset. CFSE, carboxyfluorescein succinimidyl ester.

[2] = system: autologous TILs and patient-derived sarcoma spheroids; experiment: Spheroid infiltration by autologous TILs (real-time imaging and flow cytometry); type: cell-based, human; conditions: antagonist 12 µM, 3 days, n=8 donors, not statistically significant
Method: Spheroids were prepared using patient-derived sarcoma cell lines. 1×10^4 cells were seeded per well in 96-well ultra-low attachment plate with DMEM-F12 media containing 20% FBS and 1% PS for 5 days. 3×10^4 CSFE-labeled autologous expanded TILs, at Effector:target ratio of 3:1, were added to the spheroid at day five with A2BAR antagonism treatment at 12 µM. After 3 days, spheroid was removed and split into two groups—IN and OUT. […] Spheroids were washed with PBS at least two times. GentleMACS tumor dissociation kit (Miltenyi Biotec) was used to digest the spheroids for FC analysis.
Brightfield and phase contrast images under 4X objective were acquired every 6 hours on IncuCyte S3 system (Essen BioScience). For breast cancer patient-derived spheroid culture, 1×10^4 cells per well were seeded with A2BAR antagonist at 12 µM treatment for 6 days real time imaging. For spheroid infiltration, after the addition of CSFE-labeled autologous expanded TILs and treatment with A2BAR antagonist at 12 µM, green fluorescence images were acquired for 3 days. All spheroid invasion analysis was performed using top hat segmentation with IncuCyte software.
Cell surface was stained with mouse monoclonal antihuman antibodies against CD3, CD4, CD8, CD45RA, CD56 and CD19 listed in online supplemental table 1. Cell surface antibodies and live/dead (L/D) marker were incubated with samples at 4°C for 20 min after washing two times with flow cytometry buffer containing 5% FBS in PBS. For spheroid infiltrated TIL phenotyping, digested IN and OUT spheroids were stained with cell surface marker and analyzed on NovoCyte (ACEA Bioscience) with the use of FlowJo software (Tree Star) by gating single cell based on forward and side scatters. A representative gating strategy for CD8 naïve T cells is shown in online supplemental figure 3A. Compensated flow cytometry standard (FCS) files with only live cells were concatenated for downstream tSNE analysis using the ‘cytofkit’ R package (https://github.com/JinmiaoChenLab/cytofkit).
Figure 6 Infiltration of TILs into autologous patient-derived sarcoma spheroids after A2BAR antagonist treatment. (A) Representative real-time imaging of spheroid TIL infiltration over 3 days under 4× objective. Green areas demarcate CFSE-labeled TILs infiltrated into the red boundary tumor spheroid. (B) Relative TIL infiltration into autologous spheroids (n=8 donors) measured by flow cytometer. Antagonist 12 µM was added with CSFE-labeled TILs after spheroid formation on day five. (C) Representative flow cytometry plot of CFSE positive TILs in CD73+ tumor spheroid. (D) tSNE analysis and (E) annotated pie chart of TILs within (IN) and outside of (OUT) the spheroids without treatment (n=8 donors, indicated within the pie chart). Wilcoxon Rank Sum test was performed to compare the various IN vs OUT adhesion markers. Expression of (F) CD3 T cells, (G) CD49a+ CD103+ among CD8 T cells and (H) CD69 MFI among CD4 T cells IN and OUT of the spheroids without treatment (n=8 donors). (I) Relative CD8/CD4 TIL ratio IN the spheroids. Differential expression of relative (J–L). CD49a+ CD103+ cells IN the spheroids (n=8 donors) of CD3, CD8, and CD4 TILs. Antagonist 12 µM was added for J–L. Outlier is presented as diamond shape and defined by Tukey’s rule, which is not included in statistical analysis. Box plots with minimum, first quartile, median, third quartile, and maximum are presented. Unpaired and non-parametric statistical analysis—Mann-Whitney test was performed against untreated control with *p<0.05, **p<0.01, ***p<0.001, and ****p<0.0001. CFSE, carboxyfluorescein succinimidyl ester; TIL, tumor infiltrating lymphocyte; tSNE, T-distributed stochastic neighboring embedding. TEXT PRINTED IN THE PICTURE: (C) ISAM-R56A: TILs 13.0 DOUBTS OF THE COPYIST ABOUT THIS PICTURE: Panel C, ISAM-R56A, TILs: the print is small, 13.0 could be 13.8 or 13.6 / Panel C also prints a gate label 'TILs 3.17' for the Untreated control. […]

[3] = target: T1, hA2B (A2BAR) (Homo sapiens, UniProt P29275); experiment: cAMP assay, NECA-stimulated, HEK-293 cells with transfected A2BAR; type: cell-based; conditions: n=3, read-out: Kb hA2B (cAMP production)
T1 construct: expressed in transfected cells; host or cells: HEK-293
T1 sequence (P29275 1-332): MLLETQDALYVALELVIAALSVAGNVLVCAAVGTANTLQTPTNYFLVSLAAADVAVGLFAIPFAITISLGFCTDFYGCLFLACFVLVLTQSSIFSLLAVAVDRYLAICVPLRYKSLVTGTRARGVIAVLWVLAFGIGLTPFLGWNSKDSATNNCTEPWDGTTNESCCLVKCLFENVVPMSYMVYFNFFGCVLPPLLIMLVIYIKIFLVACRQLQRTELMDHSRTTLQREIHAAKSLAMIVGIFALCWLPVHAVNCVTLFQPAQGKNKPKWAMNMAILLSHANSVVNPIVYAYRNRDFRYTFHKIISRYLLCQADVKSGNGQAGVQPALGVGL
Method: Assays were performed in transfected A2BAR using a cyclic AMP (cAMP) enzyme immunoassay kit (Amersham Biosciences) following previously described protocols.[28 30] HEK-293 cells were seeded (10,000 cells/well) in 96-well culture plates and incubated at 37°C in an atmosphere with 5% CO2 in Eagle’s Medium Nutrient Mixture F-12 (EMEM F-12), containing 10% fetal calf serum (FCS) and 1% L-Glutamine. Cells were washed three times with 200 µL assay medium (EMEM-F12 and 25 mM HEPES pH=7.4) and pre-incubated with assay medium containing 30 µM rolipram and test compounds at 37°C for 15 min. Ten µM NECA was incubated for 15 min at 37°C (total incubation time 30 min). Reaction was stopped with lysis buffer supplied in the kit and the enzyme immunoassay was carried out for detection of intracellular cAMP at 450 nm in an Ultra Evolution detector (Tecan). The dose-response curve of NECA-elicited cAMP formation was used to determine the initial choice of A2BAR antagonist concentration (online supplemental figure 2).

[4] = system: CD4 and CD8 T cells (healthy donor PBMCs); experiment: IFNy and perforin cytokine production assay, with CD69 expression (flow cytometry); type: cell-based, human; conditions: antagonist 12 µM, exogenous adenosine
Method: Similar experimental setup was performed as the extracellular ADO uptake assay. Cells were harvested after 2 days of CD3/CD28 bead stimulation before treatment with PMA/ionomycin (Sigma Aldrich) and golgi-inhibitors (BD biosciences). After 3 hours of subsequent incubation, intracellular staining was performed for IFNy and perforin (online supplemental table 1).
(§1) Figure 4 Rescue of lymphocyte proinflammatory cytokine production IFNy and perforin by A2BAR antagonism. (A,B) Inhibition of extracellular adenosine uptake via phosphorylated-AMP activated protein kinase (pAMPK) staining (n=7 healthy donors). Production of proinflammatory cytokines—(C,D) IFNy and (E) perforin in CD4 (n=5 healthy donors) and CD8 (n=6 healthy donors) T cells. Expression of CD69 adhesion molecule in (F). CD4 (n=7 healthy donors) and (G) CD8 (n=4 healthy donors) T cells. A2BAR antagonist 12 µM was added. Outlier is presented as diamond shape and defined by Tukey’s rule, which is not included in statistical analysis. Box plots with minimum, first quartile, median, third quartile, and maximum are presented. Normalized fold change is based on percent values compared with untreated controls. Unpaired and non-parametric statistical analysis—Mann-Whitney test was performed against untreated control with *p<0.05, **p<0.01, ***p<0.001, and ****p<0.0001.

[5] = system: healthy donor T cells in MPNST patient-derived sarcoma spheroid; experiment: Proliferation assay with CD73-expressing patient-derived sarcoma (MPNST) spheroid; type: cell-based, human; conditions: antagonist 12 µM, 3 days, endogenous adenosine, n=5 healthy donors
Method: A malignant peripheral nerve sheath tumor (MPNST) patient-derived sarcoma cell line was used to grow spheroid by seeding 1×10^4 cells per well in a 96-well ultra-low attachment plate (Thermo Fisher Scientific) with DMEM-F12 media containing 20% FBS and 1% PS for 5 days. 1×10^5 CSFE-labeled healthy PBMCs, ratio of 10:1, were added to the CD73 expressing, adenosine-producing spheroid at day five. Similar to the proliferation assay with exogenous ADO, CD3/CD28 beads at 1:4 ratio and IL-2 at 100 IU/mL were added. A2BAR antagonism treatment at 12 μM was added at the same day.
Figure 5 Rescue of lymphocyte proliferation in sarcoma spheroids by A2BAR antagonism. Relative proliferation of: (A) CD45RA- CD4 T cells, (B) CD45RA+CD4 T cells, (C) CD45RA- CD8 T cells and (D) CD45RA+ CD8 T cells after antagonist 12 µM treatment for 3 days in MPNST patient-derived sarcoma spheroid. (n=5 healthy donors) Box plots with minimum, first quartile, median, third quartile, and maximum are presented. Unpaired and non-parametric statistical analysis—Mann-Whitney test was performed against untreated control with *p<0.05, **p<0.01, ***p<0.001, and ****p<0.0001. (E) Representative CSFE dilution of CD45RA+ CD8 T cells. CD45RA expression differentiates naïve and effector T cells from central and effector memory T cells. MPNST, malignant peripheral nerve sheath tumors; UPS, undifferentiated pleomorphic sarcoma.

[6] = system: pAMPK in CD4 and CD8 T cells; experiment: Extracellular ADO uptake assay via pAMPK staining; type: cell-based, human; conditions: antagonist 12 µM, 50 µM exogenous adenosine, n=7 healthy donors
Method: Experimental setup was adopted from a previous study whereby AR antagonist was added to pretreat cells before exogenous adenosine treatment for intracellular and cytokine staining.[37] In brief, PBMCs were treated with 12 µM of A2BAR antagonists for 90 min before the addition of 50 µM of adenosine for 2 hours. Cells were harvested after 3 hours of CD3/CD28 bead stimulation before intracellular staining with phosphor-AMPK (Thr183, Thr172) rabbit primary antibody (Thermo Fisher Scientific) and antirabbit secondary antibody (BD biosciences).
as §1

| Kb [3] | Compound | Rescue of lymphocyte (T and NK cell) proliferation [1] | Median increased TIL infiltration vs untreated [2] | IFNy production by T cells on adenosine suppression (subset not given) [4] | Perforin production by CD8 T cells on adenosine suppression [4] | Rescue of naïve and effector (CD45RA+) CD8 T cell proliferation in adenosine-producing sarcoma spheroids [5] | pAMPK (extracellular ADO uptake) in CD4 T cells [6] |
| --- | --- | --- | --- | --- | --- | --- | --- |
|  | Cc1cc(-c2nnc(N)nc2-c2ccc(F)cc2)cc(Cl)n1 [AZD-4635, reference compound] | did not restore the proliferation | 20% |  |  |  |  |
| 116 nM | CC1=C(C(=O)OC(C)C)C(c2ccco2)NC(=NC#N)N1 (stereo not shown) [SY1KO-24] | None of the other A2BAR antagonists (SY1AF–30, SY1AF–80 and SY1KO–24) had any measurable impact |  |  |  |  |  |
| 4.72 nM | CC1=C(C(=O)OC(C)C)C(c2ccco2)NC(=S)N1 (stereo not shown) [SY1AF-30] | None of the other A2BAR antagonists (SY1AF–30, SY1AF–80 and SY1KO–24) had any measurable impact |  | significantly improved | significantly improved | significantly rescued |  |
| 25.2 nM | CCOC(=O)C1=C(C)NC(=O)NC1c1ccsc1 (stereo not shown) [SY1AF-80] | None of the other A2BAR antagonists (SY1AF–30, SY1AF–80 and SY1KO–24) had any measurable impact |  |  |  | significantly rescued | significantly inhibited ADO uptake |
